The text below walks through data of patent US12071441B2, “10-(di(phenyl)methyl)-4-hydroxy-8,9,9A,10-tetrahydro-7H-pyrrolo[1′,2′:4,5]pyrazino[1,2-b]pyridazine-3,5-dione derivatives and related compounds as inhibitors of the orthomyxovirus replication for treating influenza” (Novartis AG, priority 2018, dated 2024).

Where only a bound is given, the exact number is not on record here.

Common to all, as to assay: microbe, parasite or virus in culture
Assay type in all cases: cell-based

In test [1] the test system is influenza A virus minigenome (PB2, PB1, PA, NP; luciferase reporter) in 293T cells, RNP_Alaska. The note with it: HEK-293T, 48 h.
The subject of test [2] is influenza A virus minigenome (PB2, PB1, PA, NP; luciferase reporter) in 293T cells, RNP_CAL. The note with it: HEK-293T, 48 h, read-out: RNP_CAL_EC50.
For test [3], the system named is influenza A virus minigenome (PB2, PB1, PA, NP; luciferase reporter) in 293T cells, RNP_Hubei. The following applies: HEK-293T, 48 h.

For `O=C1c2c(O)c(=O)cnn2[C@@H]([C@@H](c2ccc(F)cc2)c2ccc(OC(F)(F)F)cc2)[C@H]2CCCN12` [Example 5, (9aR,10S)-10-((R)-(4-fluorophenyl)(4-(trifluoromethoxy)phenyl)methyl)-4-hydroxy-8,9,9a,10-tetrahydro-7H-pyrrolo[1′,2′:4,5]pyrazino[1,2-b]pyridazine-3,5-dione], the EC50 in test [1], in test [2] and in test [3] was 0.1 to 1 µM each time.

As for `COc1ccccc1[C@H](c1ccc(F)cc1)[C@H]1[C@H]2CCCN2C(=O)c2c(O)c(=O)cnn21` [Example 6, (9aR,10S)-10-((S)-(4-fluorophenyl)(2-methoxyphenyl)methyl)-4-hydroxy-8,9,9a,10-tetrahydro-7H-pyrrolo[1′,2′:4,5]pyrazino[1,2-b]pyridazine-3,5-dione], the EC50 in test [1], in test [2] and in test [3] was 0.1 to 1 µM throughout.

As to `COc1ccc([C@H](c2ccc(F)cc2)[C@H]2[C@H]3CCCN3C(=O)c3c(O)c(=O)cnn32)cc1` [Example 7, (9aR,10S)-10-((R)-(4-fluorophenyl)(4-methoxyphenyl)methyl)-4-hydroxy-8,9,9a,10-tetrahydro-7H-pyrrolo[1′,2′:4,5]pyrazino[1,2-b]pyridazine-3,5-dione], the EC50 in test [1], in test [2] and in test [3] was 0.1 to 1 µM throughout.

`O=C1c2c(O)c(=O)cnn2[C@@H]([C@H](c2ccccc2F)c2cccc(F)c2F)[C@H]2CCCN12` [Example 8, (9aR,10S)-10-((R)-(2,3-difluorophenyl)(2-fluorophenyl)methyl)-4-hydroxy-8,9,9a,10-tetrahydro-7H-pyrrolo[1′,2′:4,5]pyrazino[1,2-b]pyridazine-3,5-dione]: the EC50 in test [1], in test [2] and in test [3] was less than 0.1 µM each time.

On to `COc1cccc([C@H](c2ccc(F)cc2)[C@H]2[C@H]3CCCN3C(=O)c3c(O)c(=O)cnn32)c1` [Example 9, (9aR,10S)-10-((S)-(4-fluorophenyl)(3-methoxyphenyl)methyl)-4-hydroxy-8,9,9a,10-tetrahydro-7H-pyrrolo[1′,2′:4,5]pyrazino[1,2-b]pyridazine-3,5-dione], for which the EC50 in test [1] is 0.1 to 1 µM; in test [2], 0.1 to 1 µM; in test [3], less than 0.1 µM.

As to `Cc1cccc([C@H](c2ccc(F)cc2)[C@H]2[C@H]3CCCN3C(=O)c3c(O)c(=O)cnn32)c1` [Example 10, (9aR,10S)-10-((S)-(4-fluorophenyl)(m-tolyl)methyl)-4-hydroxy-8,9,9a,10-tetrahydro-7H-pyrrolo[1′,2′:4,5]pyrazino[1,2-b]pyridazine-3,5-dione], the EC50 in test [1], in test [2] and in test [3] was less than 0.1 µM throughout.

For the compound `Cc1c([C@@H](c2cccc(F)c2)[C@H]2[C@H]3CCCN3C(=O)c3c(O)c(=O)cnn32)ccc(F)c1F` [Example 11, (9aR,10S)-10-((R)-(3,4-difluoro-2-methylphenyl)(3-fluorophenyl)methyl)-4-hydroxy-8,9,9a,10-tetrahydro-7H-pyrrolo[1′,2′:4,5]pyrazino[1,2-b]pyridazine-3,5-dione], the EC50 in test [1], in test [2] and in test [3] was less than 0.1 µM throughout.

Consider `Cc1cccc([C@@H](c2cccc(F)c2)[C@H]2[C@H]3CCCN3C(=O)c3c(O)c(=O)cnn32)c1F` [Example 12, (9aR,10S)-10-((R)-(2-fluoro-3-methylphenyl)(3-fluorophenyl)methyl)-4-hydroxy-8,9,9a,10-tetrahydro-7H-pyrrolo[1′,2′:4,5]pyrazino[1,2-b]pyridazine-3,5-dione], for which the EC50 in test [1], in test [2] and in test [3] was 0.1 to 1 µM each time.

As to `O=C1c2c(O)c(=O)cnn2[C@@H](C(c2cccc(F)c2)c2cccc(F)c2)[C@H]2CC(F)(F)CN12` [Example 13, (9aR,10S)-10-(bis(3-fluorophenyl)methyl)-8,8-difluoro-4-hydroxy-8,9,9a,10-tetrahydro-7H-pyrrolo[1′,2′:4,5]pyrazino[1,2-b]pyridazine-3,5-dione], the EC50 in test [1] is not below 1 µM; in test [2], not below 1 µM; in test [3], 0.1 to 1 µM.

For the compound `O=C1c2c(O)c(=O)cnn2[C@@H]([C@H](c2ccccc2)c2cccc(F)c2F)[C@@H]2COCCN12` [Example 14, (10aR,11S)-11-((R)-(2,3-difluorophenyl)(phenyl)methyl)-4-hydroxy-7,8,10a,11-tetrahydro-10H-pyridazino[1′,6′:4,5]pyrazino[2,1-c][1,4]oxazine-3,5-dione], the EC50 in test [1], in test [2] and in test [3] was less than 0.1 µM each time.

As for `Cc1c(F)cccc1[C@@H](c1cccc(F)c1)[C@H]1[C@H]2CCCN2C(=O)c2c(O)c(=O)cnn21` [Example 15, (9aR,10S)-10-((R)-(3-fluoro-2-methylphenyl)(3-fluorophenyl)methyl)-4-hydroxy-8,9,9a,10-tetrahydro-7H-pyrrolo[1′,2′:4,5]pyrazino[1,2-b]pyridazine-3,5-dione], the EC50 in test [1], in test [2] and in test [3] was less than 0.1 µM each time.

In the case of `O=C1c2c(O)c(=O)cnn2[C@@H]([C@H](c2ccccc2)c2c(F)ccc(F)c2F)[C@H]2CCCN12` [Example 16, (9aR,10S)-4-hydroxy-10-((R)-phenyl(2,3,6-trifluorophenyl)methyl)-8,9,9a,10-tetrahydro-7H-pyrrolo[1′,2′:4,5]pyrazino[1,2-b]pyridazine-3,5-dione], the EC50 in test [1], in test [2] and in test [3] was less than 0.1 µM each time.

For the compound `Cc1ccccc1[C@H](c1cccc(C)c1F)[C@H]1[C@H]2CCCN2C(=O)c2c(O)c(=O)cnn21` [Example 17, (9aR,10S)-10-((R)-(2-fluoro-3-methylphenyl)(o-tolyl)methyl)-4-hydroxy-8,9,9a,10-tetrahydro-7H-pyrrolo[1′,2′:4,5]pyrazino[1,2-b]pyridazine-3,5-dione], the EC50 in test [1] is 0.1 to 1 µM; in test [2], 0.1 to 1 µM; in test [3] it was less than 0.1 µM.

Take `Cc1c(F)cccc1[C@@H](c1ccc(F)cc1)[C@H]1[C@H]2CCCN2C(=O)c2c(O)c(=O)cnn21` [Example 18, (9aR,10S)-10-((R)-(3-fluoro-2-methylphenyl)(4-fluorophenyl)methyl)-4-hydroxy-8,9,9a,10-tetrahydro-7H-pyrrolo[1′,2′:4,5]pyrazino[1,2-b]pyridazine-3,5-dione]: the EC50 in test [1], in test [2] and in test [3] was less than 0.1 µM throughout.

As to `Cc1c(F)cccc1[C@@H](c1ccccc1)[C@H]1[C@H]2CCCN2C(=O)c2c(O)c(=O)cnn21` [Example 19, (9aR,10S)-10-((R)-(3-fluoro-2-methylphenyl)(phenyl)methyl)-4-(|1-oxidanyl)-8,9,9a,10-tetrahydro-7H-pyrrolo[1′,2′:4,5]pyrazino[1,2-b]pyridazine-3,5-dione], the EC50 in test [1], in test [2] and in test [3] was less than 0.1 µM in each case.

For `O=C1c2c(O)c(=O)cnn2[C@@H]([C@H](c2ccc(F)cc2)c2cccc(C(F)(F)F)c2)[C@H]2CCCN12` [Example 20, (9aR,10S)-10-((R)-(4-fluorophenyl)(3-(trifluoromethyl)phenyl)methyl)-4-hydroxy-8,9,9a,10-tetrahydro-7H-pyrrolo[1′,2′:4,5]pyrazino[1,2-b]pyridazine-3,5-dione], the EC50 in test [1], in test [2] and in test [3] was 0.1 to 1 µM throughout.

`O=C1c2c(O)c(=O)cnn2[C@@H]([C@H](c2ccc(F)cc2)c2ccc(C(F)(F)F)cc2)[C@H]2CCCN12` [Example 21, (9aR,10S)-10-((S)-(4-fluorophenyl)(4-(trifluoromethyl)phenyl)methyl)-4-hydroxy-8,9,9a,10-tetrahydro-7H-pyrrolo[1′,2′:4,5]pyrazino[1,2-b]pyridazine-3,5-dione]: the EC50 in test [1], in test [2] and in test [3] was 0.1 to 1 µM in each case.

With `O=C1c2c(O)c(=O)cnn2[C@@H]([C@H](c2ccc(F)cc2)c2cccc(OC(F)(F)F)c2)[C@H]2CCCN12` [Example 22, (9aR,10S)-10-((R)-(4-fluorophenyl)(3-(trifluoromethoxy)phenyl)methyl)-4-hydroxy-8,9,9a,10-tetrahydro-7H-pyrrolo[1′,2′:4,5]pyrazino[1,2-b]pyridazine-3,5-dione], the EC50 in test [1], in test [2] and in test [3] was 0.1 to 1 µM in each case.

On to `O=C1c2c(O)c(=O)cnn2[C@@H]([C@H](c2ccc(F)cc2)c2ccc(OC(F)(F)F)cc2)[C@H]2CCCN12` [Example 23, (9aR,10S)-10-((S)-(4-fluorophenyl)(4-(trifluoromethoxy)phenyl)methyl)-4-hydroxy-8,9,9a,10-tetrahydro-7H-pyrrolo[1′,2′:4,5]pyrazino[1,2-b]pyridazine-3,5-dione], for which the EC50 in test [1] is not below 1 µM; in test [2], 0.1 to 1 µM; in test [3], 0.1 to 1 µM.

Consider `COc1cccc([C@@H](c2ccc(F)cc2)[C@H]2[C@H]3CCCN3C(=O)c3c(O)c(=O)cnn32)c1` [Example 24, (9aR,10S)-10-((R)-(4-fluorophenyl)(3-methoxyphenyl)methyl)-4-hydroxy-8,9,9a,10-tetrahydro-7H-pyrrolo[1′,2′:4,5]pyrazino[1,2-b]pyridazine-3,5-dione], for which the EC50 in test [1], in test [2] and in test [3] was 0.1 to 1 µM in each case.

For the compound `COc1ccccc1[C@@H](c1ccc(F)cc1)[C@H]1[C@H]2CCCN2C(=O)c2c(O)c(=O)cnn21` [Example 25, (9aR,10S)-10-((R)-(4-fluorophenyl)(2-methoxyphenyl)methyl)-4-hydroxy-8,9,9a,10-tetrahydro-7H-pyrrolo[1′,2′:4,5]pyrazino[1,2-b]pyridazine-3,5-dione], the EC50 in test [1], in test [2] and in test [3] was 0.1 to 1 µM each time.
